Experimental data from patent publication US20110098352A1, “N,N-DISUBSTITUTED AMINOALKYLBIPHENYL ANTAGONISTS OF PROSTAGLANDIN D2 RECEPTORS” (AMIRA PHARMACEUTICALS, INC., priority 2008, published 2011).

Experiments:
human DP2 receptor = biological target: T1, human DP2 receptor (Homo sapiens, UniProt Q9Y5Y4); assay: DP2/CRTH2 radioligand binding assay using [3H]PGD2; conditions: [3H]PGD2 binding, membranes of HEK293 cells expressing recombinant human DP2; read-out: hDP2
T1 construct: expressed in transfected cells
T1 sequence (Q9Y5Y4 1-395): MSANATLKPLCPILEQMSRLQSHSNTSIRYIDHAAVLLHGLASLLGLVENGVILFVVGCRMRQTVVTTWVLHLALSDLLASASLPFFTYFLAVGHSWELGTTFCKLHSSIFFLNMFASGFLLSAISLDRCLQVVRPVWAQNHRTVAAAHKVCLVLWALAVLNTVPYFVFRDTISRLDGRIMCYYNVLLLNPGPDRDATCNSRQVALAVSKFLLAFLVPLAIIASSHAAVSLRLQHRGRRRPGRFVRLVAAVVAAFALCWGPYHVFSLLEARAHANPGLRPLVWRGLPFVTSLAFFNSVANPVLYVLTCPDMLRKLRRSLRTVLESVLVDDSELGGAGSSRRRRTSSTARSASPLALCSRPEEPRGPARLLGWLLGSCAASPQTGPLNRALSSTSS
Outline: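 HEK293 membranes with stable recombinant human DP2, incubated with 1 nM [3H]PGD2 and compound 60 min at room temperature in pH 7.4 HEPES/MnCl2/EDTA buffer, with or without 0.2% human serum albumin.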

human DP1 receptor = biological target: T2, human DP1 receptor (Homo sapiens, UniProt Q13258); assay: DP1 radioligand membrane binding assay using [3H]BWA868C; conditions: [3H]BWA868C binding, human platelet membranes; read-out: hDP1
T2 construct: tissue Biological Specialty Corporation; host or cells: human platelets, membranes
T2 sequence (Q13258 1-359): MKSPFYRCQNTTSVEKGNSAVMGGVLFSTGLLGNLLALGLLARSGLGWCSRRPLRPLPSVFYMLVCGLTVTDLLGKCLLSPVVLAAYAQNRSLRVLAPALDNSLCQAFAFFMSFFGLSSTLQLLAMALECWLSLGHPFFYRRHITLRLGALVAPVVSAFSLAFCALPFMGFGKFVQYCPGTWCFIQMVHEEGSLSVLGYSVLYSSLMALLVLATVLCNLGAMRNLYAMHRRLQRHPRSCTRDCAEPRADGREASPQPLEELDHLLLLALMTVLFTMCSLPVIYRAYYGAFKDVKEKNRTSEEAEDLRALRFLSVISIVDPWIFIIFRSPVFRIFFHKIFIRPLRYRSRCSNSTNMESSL

[1] = biological target: T3, recombinant human CRTH2 receptor (Homo sapiens, UniProt Q9Y5Y4); assay: GTPγS binding assay; type: biochemical; conditions: +HSA; CHO cell membranes, 80 nM PGD2; read-out: hDP2 GTPγS μM (+HSA)
T3 construct: expressed in transfected cells
T3 sequence (Q9Y5Y4 1-395): T1 sequence (Q9Y5Y4 1-395)
Description: The ability of a compound to inhibit binding of GTP to DP2 is assessed via a membrane GTPγS assay. CHO cells stably expressing the recombinant human CRTH2 receptor are resuspended in 10 mM Hepes, 7.4 containing 1 mM DTT, lysed and centrifuged at 75,000×g to pellet the membranes. The membranes are resuspended in 10 mM Hepes, 7.4 containing 1 mM DTT and 10% glycerol. […] The reactions are terminated by rapid filtration through Whatman GF/B glass fibre filter plates. The filter plates are washed 3 times with 1 ml cold Assay Buffer and dried. Scintillant is then added to the plates and the radioactivity retained on the filters is determined on a Packard TopCount (Perkin Elmer). Specific binding is determined as total radioactive binding minus non-specific binding in the absence of the ligand (80 nM PGD2). IC50s were determined using Graphpad prism analysis of drug titration curves.

SMILES	IC50 (human DP2 receptor) [nM]	IC50 (human DP1 receptor) [nM]	IC50 [1] [µM]
CCN(Cc1cc(C(F)(F)F)ccc1-c1cc(CC(=O)O)ccc1OC)C(=O)OCc1ccccc1Cl [Compound 1-39, (2′-{[(2-Chloro-benzyloxycarbonyl)-ethyl-amino]-methyl}-6-methoxy-4′-trifluoromethyl-biphenyl-3-yl)-acetic acid]	< 300	> 1000	< 0.3
CCN(Cc1cc(C(F)(F)F)ccc1-c1cc(CC(=O)O)ccc1OC)C(=O)NCc1ccccc1 [Compound 1-96, [2′-(3-Benzyl-1-ethyl-ureidomethyl)-6-methoxy-4′-trifluoromethyl-biphenyl-3-yl]-acetic acid]	< 300	> 1000	< 0.3
COc1ccc(CC(=O)O)cc1-c1ccc(C(F)(F)F)cc1CN(CC(F)(F)F)C(C)=O [Compound 1-4, (2′-{[Acetyl-(2,2,2-trifluoro-ethyl)-amino]-methyl}-6-methoxy-4′-trifluoromethyl-biphenyl-3-yl)-acetic acid]	< 300	> 1000	< 0.3
CCN(Cc1cc(C(F)(F)F)ccc1-c1cc(CC(=O)O)ccc1OC)C(=O)COc1ccc(Cl)cc1 [Compound 1-93, [2′-({[2-(4-Chloro-phenoxy)-acetyl]-ethyl-amino}-methyl)-6-methoxy-4′-trifluoromethyl-biphenyl-3-yl]-acetic acid]	< 300	> 1000	< 0.3
O=C(O)CCn1c2c(c3ccccc31)C[C@H](NS(=O)(=O)c1ccc(F)cc1)CC2 [Ramatroban, reference compound]	300 to 1000	> 1000	0.3 to 1
CCN(Cc1cc(F)ccc1-c1cc(CC(=O)O)ccc1OC)C(=O)C1CC1 [Compound 1-186, {2′-[(Cyclopropanecarbonyl-ethyl-amino)-methyl]-4′-fluoro-6-methoxy-biphenyl-3-yl}-acetic acid]	< 300	> 1000	< 0.3
